# Values quoted from earlier work, collected in patent US10448644B2, “Fungicide composition for natural fibers and natural fiber components” (Lisa Draexlmaier Gmbh, priority 2014, dated 2019).
# Columns and labels:
# [1] = animal experiments
# [2] = according to the German Federal Institute for Health Protection and Veterinary Medicine
smiles,measurement,setting,value
c1ccc2[nH]c(-c3cscn3)nc2c1 [thiabendazole],carcinogenic effect,[1],found to have a carcinogenic effect
same,toxicity,[2],low
